Measurements published in paper PMC12785511, “Integrative Profiling for BBB Permeability Using Capillary Electrochromatography, Experimental Physicochemical Parameters, and Ensemble Machine Learning” (International Journal of Molecular Sciences, 2025).

Assays:
[1] = experimental in vivo measurements from rats, data retrieved from literature; cited from earlier work
[2] = open-tubular capillary electrochromatography (CEC), permeability k′ parameter; assay type: in vitro ADME; conditions: pH 7.4 HEPES buffer 40 mM, migration times in coated and uncoated capillary, mean ± SD of three independent experiments
[3] = Sirius T3 automated potentiometric titrations with n-octanol, log P / log D; conditions: n-octanol/water; for logD: pH 7.4
[4] = Sirius T3 automated potentiometric (pH-metric) titrations, pKa; conditions: ionic strength adjusted (ISA) water ([…] KCl)
[5] = pKa ± SD, […] ISA water or Yasuda–Shedlovsky extrapolation from methanol cosolvent, value used for regression

Row | Compound | k′ ± SD (CEC) [2] | logP [3] | logD [3] | pKa [4, 5] | Log BB [1] | pKa [4]
1 | CC(=O)Oc1ccccc1C(=O)O [acetylsalicylic acid] | 0.03441 ± 0.00987 | 1.31 ± 0.01 | -2.73 |  | −1.30 | 
2 | CC(C)NCC(O)COc1ccc(CC(N)=O)cc1 (stereo not drawn) [atenolol] | 0.00183 ± 0.00051 |  |  |  |  | 
3 | CN1[C@@H]2CC[C@H]1C[C@@H](OC(=O)C(CO)c1ccccc1)C2 (stereo partly drawn) [atropine] | 0.0044 ± 0.00309 |  |  |  |  | 
4 | O=C1CC2(CCCC2)CC(=O)N1CCCCN1CCN(c2ncccn2)CC1 [buspirone] |  |  |  | 7.62 |  | 
5 | CC(C)Cc1ccc(C(C)C(=O)O)cc1 (stereo not drawn) [ibuprofen] | −0.0369 ± 0.00011 | 3.8 | 1.07 |  |  | 
6 | CN(C)CCCN1c2ccccc2CCc2ccccc21 [imipramine] |  |  |  |  | 1.30 | 
7 | C[C@H]1COc2c(N3CCN(C)CC3)c(F)cc3c(=O)c(C(=O)O)cn1c23 [levofloxacin] |  | 0.82 ± 0.01 | 0.77 |  | −0.70 | 
8 | CCN(CC)CCNC(=O)c1cc(Cl)c(N)cc1OC [metoclopramide] | −0.00563 ± 0.00136 |  |  |  | 0.08 | 
9 | COc1ccc2cc([C@H](C)C(=O)O)ccc2c1 [naproxen] | 0.0105 ± 0.0046 |  |  |  | −1.70 | 
10 | CC(C)NCC(O)COc1cccc2[nH]ccc12 (stereo not drawn) [pindolol] |  |  |  |  | 0.30 | 9.62 ± 0.07
11 | C=C[C@H]1C[N@@]2CC[C@H]1C[C@@H]2[C@@H](O)c1ccnc2ccc(OC)cc12 [quinidine] | 0.0034 ± 0.0004 |  |  |  | 0.33 | 
12 | Cc1nc2n(c(=O)c1CCN1CCC(c3noc4cc(F)ccc34)CC1)CCCC2 [risperidone] | 0.00698 ± 0.00377 | 3.09 ± 0.03 |  |  |  | 
13 | O=C(O)c1ccccc1O [salicylic acid] | 0.02255 ± 0.00676 | 2.31 ± 0.01 | -0.98 |  |  | 
14 | Cc1cn([C@H]2C[C@H](N=[N+]=[N-])[C@@H](CO)O2)c(=O)[nH]c1=O [zidovudine] | 0.00428 ± 0.00056 | 0.09 ± 0.01 | 0.09 | 9.51 |  | 

The next lines start with results.

Row | k′ ± SD (CEC) [2] | logP [3] | logD [3] | pKa [4, 5] | Compound | Log BB [1] | pKa [4]
15 |  | 5.1 ± 0.03 | 3.43 | 9.07 ± 0.01 | CN(C)CCCN1c2ccccc2Sc2ccc(Cl)cc21 [chlorpromazine] |  | 
16 | 0.00405 ± 0.00229 |  |  |  | CN(C)CCCC1(c2ccc(F)cc2)OCc2cc(C#N)ccc21 (stereo not drawn) [citalopram] | 0.48 | 
17 | 0.00693 ± 0.00245 | 3.92 ± 0.1 | 3.52 |  | CN1CCN(C2=Nc3cc(Cl)ccc3Nc3ccccc32)CC1 [clozapine] | 0.60 | 
18 | −0.01523 ± 0.00343 |  |  |  | CNCCCN1c2ccccc2CCc2ccccc21 [desipramine] | 1.20 | 
19 | 0.00802 ± 0.0032 | 4.33 ± 0.01 | 1.26 |  | O=C(O)Cc1ccccc1Nc1c(Cl)cccc1Cl [diclofenac] | −1.70 | 
20 | −0.00906 ± 0.00138 | 4.37 ± 0.08 | 3.18 | 8.66 ± 0.08 | O=C(CCCN1CCC(O)(c2ccc(Cl)cc2)CC1)c1ccc(F)cc1 [haloperidol] |  | 
21 | 0.01869 ± 0.00624 | 6.31 ± 0.12 | 3.92 |  | COc1ccc2c(c1)c(CC(=O)O)c(C)n2C(=O)c1ccc(Cl)cc1 [indomethacin] | −1.26 | 
22 |  | 2.73 ± 0.02 | 1.48 | 8.71 ± 0.05 | COc1ccc(CN(CCN(C)C)c2ccccn2)cc1 [mepyramine] |  | 
23 | 0.00083 ± 0.00015 |  |  |  | CCCCC1C(=O)N(c2ccccc2)N(c2ccccc2)C1=O [phenylbutazone] | −0.52 | 
24 | 0.00202 ± 0.00061 |  |  |  | CC(C)NCC(O)COc1cccc2ccccc12 (stereo not drawn) [propranolol] | 0.85 | 
25 |  | 5.38 ± 0.03 | 3.54 | 9.25 ± 0.01 | CSc1ccc2c(c1)N(CCC1CCCCN1C)c1ccccc1S2 (stereo not drawn) [thioridazine] | 0.24 | 
26 | 0.2028 ± 0.00151 | 6.14 ± 0.01 | 5.53 |  | CN1CCN(CCCN2c3ccccc3Sc3ccc(C(F)(F)F)cc32)CC1 [trifluoperazine] | 1.44 | 
